Test results from paper PMC9364363 (RSC Advances, 2022).
pIC50: −log10 of the molar value. Converted amounts (≈) assume the structure as drawn. Read-outs that look alike come from different tables or passages of the source.

Key:
M. smegmatis = assay type: cell-based, Mycobacterium smegmatis; details: read-out: IC50 M. smegmatis; luminometry, 3 days
M. abscessus = test: microbe, parasite or virus in culture; assay type: cell-based, Mycobacterium abscessus; details: read-out: IC50 M. abscessus
Mtb H37Ra^lux = test: microbe, parasite or virus in culture; assay type: cell-based, Mycobacterium tuberculosis; details: for pIC50: read-out: Mtb H37Ra^lux IC50
M. avium subsp. avium = test: microbe, parasite or virus in culture; assay type: cell-based, Mycobacterium avium subsp. avium; details: read-out: IC50 M. avium subsp. avium
M. intracellulare = test: microbe, parasite or virus in culture; assay type: cell-based, Mycobacterium intracellulare; details: read-out: IC50 M. intracellulare
[1] = tested on: MRC-5 lung fibroblast cell line
in vitro = details: human

In the case of “(4-(2-(4-((1H-Benzo-[d]-imidazole-2-yl)-thio)-1H-1,2,3-triazol-1-yl)-ethyl)-piperazin-1-yl)(2-methylbenzo-[d]-imidazo[2,1-b]-thiazol-3-yl)-methanone [IT16]”, the pIC50 (M. smegmatis) was 3.99, the pIC50 (M. abscessus; luminometry, 3 days) was under 3.89 and the “Mtb H37Ra^lux IC90 (MIC)” value (Mtb H37Ra^lux) was 14.49 µM. For the same molecule, the pIC50 (Mtb H37Ra^lux) was 5.15, the pIC50 (M. avium subsp. avium; luminometry, 7 days) was 3.91 and the pIC50 (M. intracellulare; luminometry, 7 days) was under 3.89. The “T.I. CC50/IC50” value [1] was 8.2.
`Cc1nc2sccn2c1C(=O)N1CCN(CCn2cc(-c3ccc(C(C)(C)C)cc3)nn2)CC1` [IT02, (4-(2-(4-(4-(tert-Butyl)phenyl)-1H-1,2,3-triazol-1-yl)-ethyl)-piperazin-1-yl)(6-methylimidazo-[2,1-b]-thiazol-5-yl)-methanone] showed a pIC50 (M. abscessus; Mycobacteroides abscessus, 72 h) of under 3.89, a pIC50 (Mtb H37Ra^lux; Mycobacterium tuberculosis, H37RA, 168 h) of 5.28 and an MIC (Mtb H37Ra^lux; Mycobacterium tuberculosis, H37RA, 168 h, read-out: Mtb H37Ra^lux IC90 (MIC)) of 12.8 µM (≈ 6.13 µg/mL). It also gave a CC50 (in vitro) of 46 µM, a pIC50 (M. avium subsp. avium; Mycobacterium avium, 168 h) of 3.90 and a pIC50 (M. intracellulare; Mycobacterium intracellulare, 168 h) of 3.92. The “T.I. CC50/IC50” value [1] was 8.8.
